This note sets out measurements from US8697739B2, “Bicyclic acetyl-CoA carboxylase inhibitors and uses thereof” (Novartis AG, priority 2010, dated 2014).

SMILES strings stand for the structures. pIC50: −log10 of the molar value.

The target of the experiment is T1, human acetyl-CoA carboxylase 2 (ACC2) (Homo sapiens, UniProt O00763).
T1 construct: The cDNA encoding amino acids 144 to 2458 of human acetyl-CoA carboxylase 2; made in house; host or cells: Sf9 insect cells (baculovirus, pFastBac1)
T1 sequence (O00763 144-2458): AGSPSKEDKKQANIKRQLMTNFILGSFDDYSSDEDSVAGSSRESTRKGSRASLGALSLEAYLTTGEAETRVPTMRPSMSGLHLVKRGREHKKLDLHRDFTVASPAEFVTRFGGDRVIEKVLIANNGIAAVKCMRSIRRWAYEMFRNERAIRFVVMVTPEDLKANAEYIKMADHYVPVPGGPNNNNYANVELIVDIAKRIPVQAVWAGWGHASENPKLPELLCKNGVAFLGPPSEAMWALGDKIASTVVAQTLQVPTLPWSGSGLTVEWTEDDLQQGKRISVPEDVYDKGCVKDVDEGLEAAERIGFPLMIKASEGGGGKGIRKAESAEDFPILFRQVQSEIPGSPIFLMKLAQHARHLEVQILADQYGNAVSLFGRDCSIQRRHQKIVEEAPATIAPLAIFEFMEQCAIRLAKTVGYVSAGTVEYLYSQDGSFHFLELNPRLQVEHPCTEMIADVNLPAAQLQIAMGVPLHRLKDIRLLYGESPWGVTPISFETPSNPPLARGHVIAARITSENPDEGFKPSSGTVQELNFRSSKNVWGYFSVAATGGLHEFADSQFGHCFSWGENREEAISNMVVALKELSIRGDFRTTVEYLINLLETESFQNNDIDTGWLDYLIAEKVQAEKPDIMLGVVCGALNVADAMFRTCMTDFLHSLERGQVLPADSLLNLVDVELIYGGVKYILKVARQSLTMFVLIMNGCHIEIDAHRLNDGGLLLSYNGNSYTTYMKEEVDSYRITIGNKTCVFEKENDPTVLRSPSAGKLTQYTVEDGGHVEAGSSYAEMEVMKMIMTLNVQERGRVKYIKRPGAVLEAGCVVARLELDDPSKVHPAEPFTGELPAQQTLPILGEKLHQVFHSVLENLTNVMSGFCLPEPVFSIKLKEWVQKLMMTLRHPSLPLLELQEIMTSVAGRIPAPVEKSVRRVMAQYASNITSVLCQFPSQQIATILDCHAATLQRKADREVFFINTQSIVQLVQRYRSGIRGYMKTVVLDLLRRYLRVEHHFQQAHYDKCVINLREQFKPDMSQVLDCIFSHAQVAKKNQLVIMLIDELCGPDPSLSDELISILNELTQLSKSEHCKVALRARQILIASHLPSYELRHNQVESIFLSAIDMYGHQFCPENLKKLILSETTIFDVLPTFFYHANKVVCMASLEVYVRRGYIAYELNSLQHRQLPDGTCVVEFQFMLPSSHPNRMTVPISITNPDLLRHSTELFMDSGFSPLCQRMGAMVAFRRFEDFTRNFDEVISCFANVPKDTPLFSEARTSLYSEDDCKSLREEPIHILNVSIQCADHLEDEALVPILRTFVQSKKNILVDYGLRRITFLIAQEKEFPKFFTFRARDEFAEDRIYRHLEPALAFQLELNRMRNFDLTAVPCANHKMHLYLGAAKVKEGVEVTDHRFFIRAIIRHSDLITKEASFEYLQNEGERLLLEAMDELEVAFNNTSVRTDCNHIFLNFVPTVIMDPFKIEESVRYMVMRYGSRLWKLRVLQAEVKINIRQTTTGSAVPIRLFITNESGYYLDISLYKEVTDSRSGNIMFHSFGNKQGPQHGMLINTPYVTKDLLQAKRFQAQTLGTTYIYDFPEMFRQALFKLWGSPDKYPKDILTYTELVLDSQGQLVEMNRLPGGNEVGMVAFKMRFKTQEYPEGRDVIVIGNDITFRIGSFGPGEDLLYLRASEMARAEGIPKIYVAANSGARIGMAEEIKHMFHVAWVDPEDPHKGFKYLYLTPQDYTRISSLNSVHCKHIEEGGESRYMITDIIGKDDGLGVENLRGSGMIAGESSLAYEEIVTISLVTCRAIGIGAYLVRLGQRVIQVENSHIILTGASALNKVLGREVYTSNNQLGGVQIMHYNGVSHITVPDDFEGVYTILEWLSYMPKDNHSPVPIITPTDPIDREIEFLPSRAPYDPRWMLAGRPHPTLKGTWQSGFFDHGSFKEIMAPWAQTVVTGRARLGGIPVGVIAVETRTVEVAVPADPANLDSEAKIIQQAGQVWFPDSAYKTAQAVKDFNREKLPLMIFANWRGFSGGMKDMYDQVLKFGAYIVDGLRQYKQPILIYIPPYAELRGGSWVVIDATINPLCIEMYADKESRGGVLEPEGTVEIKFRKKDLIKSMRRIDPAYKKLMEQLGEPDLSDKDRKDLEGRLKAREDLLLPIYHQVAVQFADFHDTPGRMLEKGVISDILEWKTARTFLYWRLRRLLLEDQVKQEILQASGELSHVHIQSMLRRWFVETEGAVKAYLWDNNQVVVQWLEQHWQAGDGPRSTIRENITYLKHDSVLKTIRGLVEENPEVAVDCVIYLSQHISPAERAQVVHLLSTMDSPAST
Nature of the experiment: Acetyl-CoA carboxylase enzyme assay (malonyl-CoA formation by LC/MS/MS). It is filed as biochemical. The conditions noted are these: recombinant human ACC2 (aa 144-2458); read-out: IC50 ACC2. A digest of the protocol: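 Malonyl-CoA formation was read by LC/MS/MS MRM against a [13C3]-malonyl-CoA internal standard, after acetic acid quench. The enzyme was baculovirus/Sf9-expressed human ACC2 residues 144–2458, given 15 minutes room-temperature compound preincubation in HEPES pH 7.5 buffer with MgCl2, citrate and DTT. Substrate solution held 50 μM acetyl-CoA, 120 μM ATP and 2 mM KHCO3.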
In the case of `COC(=O)C1CN(c2ccc3cc(S(=O)(=O)N[C@H]4CC[C@H](C(=O)N[C@H](C)c5ccc(F)cc5)CC4)ccc3n2)CCN1` (stereo partly drawn) [Example 242, methyl 4-(6-(N-((1R,4r)-4-((R)-1-(4-fluorophenyl)ethylcarbamoyl)cyclohexyl)sulfamoyl)quinolin-2-yl)piperazine-2-carboxylate], the pIC50 is 6.71.
For `CC(C)OC(=O)c1ccc(NS(=O)(=O)c2ccc3nc(-c4ccc(O)cc4)[nH]c3c2)cc1` [Example 503, isopropyl 4-(2-(4-hydroxyphenyl)-1H-benzo[d]imidazole-6-sulfonamido)benzoate] the value was 6.09; for `Cn1c(C2CC2)c(C#N)c2ccc(S(=O)(=O)N[C@H]3CC[C@H](C(=O)N4CCN[C@@H](C(F)(F)F)C4)CC3)cc21` [Example 380, 3-cyano-2-cyclopropyl-1-methyl-N-((1R,4r)-4-((R)-3-(trifluoromethyl)piperazine-1-carbonyl)cyclohexyl)-1H-indole-6-sulfonamide], 7.12; for `O=C([C@H]1CC[C@H](NS(=O)(=O)c2ccc3c(c2)NCCC3)CC1)N1CCOCC1c1ccccc1` (stereo partly shown) [Example 178, N-((1r,4r)-4-(3-phenylmorpholine-4-carbonyl)cyclohexyl)-1,2,3,4-tetrahydroquinoline-7-sulfonamide], 7.26.
In the case of `C[C@@H](NC(=O)[C@H]1CC[C@H](NS(=O)(=O)c2ccc3c(c2)N(C)CCC3)CC1)c1ccc(F)cc1` [Example 148, (1r,4R)-N-((R)-1-(4-fluorophenyl)ethyl)-4-(1-methyl-1,2,3,4-tetrahydroquinoline-7-sulfonamido)cyclohexanecarboxamide], the pIC50 was 8.00.
For `O=C(O)CCc1ccc(-c2cc3ccc(S(=O)(=O)N[C@H]4CC[C@H](C(=O)N5CCCCC5)CC4)cc3[nH]2)cc1` [Example 358, 3-(4-(6-(N-((1r,4r)-4-(piperidine-1-carbonyl)cyclohexyl)sulfamoyl)-1H-indol-2-yl)phenyl)propanoic acid] the value was 7.46.
For `CN1CCN(c2ccc(Nc3nc4cc(S(=O)(=O)N[C@H]5CC[C@H](c6nnc(C(C)(C)C)o6)CC5)ccc4[nH]3)cc2)CC1` [Example 9, N-((1r,4r)-4-(5-tert-butyl-1,3,4-oxadiazol-2-yl)cyclohexyl)-2-(4-(4-methylpiperazin-1-yl)phenylamino)-1H-benzo[d]imidazole-5-sulfonamide] the value was 7.33; for `CCOc1ccc2cc(S(=O)(=O)N[C@H]3CC[C@H](C(=O)N[C@@H](c4ccccc4)[C@@H](C)O)CC3)ccc2n1` [Example 37, (1r,4S)-4-(2-ethoxyquinoline-6-sulfonamido)-N-((1S,2R)-2-hydroxy-1-phenylpropyl)cyclohexanecarboxamide], 7.12.
For `CC(C)(C)OC(=O)N1CCN(C(=O)[C@H]2CC[C@H](NS(=O)(=O)c3ccc4c(c3)CCC(C(F)(F)F)N4)CC2)C(c2ccccc2)C1` (stereo partly shown) [Example 179, tert-butyl 3-phenyl-4-((1r,4r)-4-(2-(trifluoromethyl)-1,2,3,4-tetrahydroquinoline-6-sulfonamido)cyclohexanecarbonyl)piperazine-1-carboxylate] the value was 6.36.
As for `Cn1c(C2CC2)cc2ccc(S(=O)(=O)N[C@H]3CC[C@H](C(=O)N[C@@H](c4ccccc4)C(C)(C)O)CC3)cc21` [Example 355, (1r,4S)-4-(2-cyclopropyl-1-methyl-1H-indole-6-sulfonamido)-N-((S)-2-hydroxy-2-methyl-1-phenylpropyl)cyclohexanecarboxamide], the pIC50 is > 8.00.
The result for `CC(C)OC(=O)c1ccc(NS(=O)(=O)c2ccc3[nH]c(Nc4cccc(C#N)c4)nc3c2)cc1` [Example 525, isopropyl 4-(2-(3-cyanophenylamino)-1H-benzo[d]imidazole-5-sulfonamido)benzoate] reads 6.78.
On to `C[C@@H](NC(=O)[C@H]1CC[C@H](NS(=O)(=O)c2ccc3cc(Cl)ccc3c2)CC1)c1cccnc1` [Example 684, (1r,4R)-4-(6-chloronaphthalene-2-sulfonamido)-N-((R)-1-(pyridin-3-yl)ethyl)cyclohexanecarboxamide], for which the pIC50 is 6.74.
In the case of `Cc1cc(-c2ccc3cc(S(=O)(=O)N[C@H]4CC[C@H](C(=O)N5CCNCC5c5ccccc5)CC4)ccc3n2)cc(C)n1` (stereo partly shown) [Example 254, 2-(2,6-dimethylpyridin-4-yl)-N-((1r,4r)-4-(2-phenylpiperazine-1-carbonyl)cyclohexyl)quinoline-6-sulfonamide], the pIC50 is 7.70.
Turning to `CC(C)CC1CCc2cc(S(=O)(=O)N[C@H]3CC[C@H](C(=O)N[C@H](C)c4ccc(F)cc4)CC3)ccc2N1` (stereo partly drawn) [Example 167, (1r,4R)-N-((R)-1-(4-fluorophenyl)ethyl)-4-(2-isobutyl-1,2,3,4-tetrahydroquinoline-6-sulfonamido)cyclohexanecarboxamide], the negative logarithm of the IC50 (pIC50) was 6.69.
Take `CC(C)[C@H]1COCCN1C(=O)[C@H]1CC[C@H](NS(=O)(=O)c2ccc3cc(C4CC4)n(C)c3c2)CC1` [Example 22, 2-cyclopropyl-N-((1S,4r)-4-((S)-3-isopropylmorpholine-4-carbonyl)cyclohexyl)-1-methyl-1H-indole-6-sulfonamide]: the pIC50 is 7.15.
For `C[C@@H](NC(=O)[C@H]1CC[C@H](NS(=O)(=O)c2ccc3nc(OCCN(C)C)ccc3c2)CC1)c1ccc(F)cc1` [Example 69, (1r,4R)-4-(2-(2-(dimethylamino)ethoxy)quinoline-6-sulfonamido)-N-((R)-1-(4-fluorophenyl)ethyl)cyclohexanecarboxamide] the value was 7.30; for `Cn1c(-c2ccccc2)cc2cc(S(=O)(=O)N[C@H]3CC[C@H](C(=O)N4CCN[C@@H](C(F)(F)F)C4)CC3)ccc21` [Example 87, 1-methyl-2-phenyl-N-((1R,4r)-4-((R)-3-(trifluoromethyl)piperazine-1-carbonyl)cyclohexyl)-1H-indole-5-sulfonamide], 7.00.
For `C[C@@H](NC(=O)[C@H]1CC[C@H](NS(=O)(=O)c2ccc3cc(-c4ccccc4)[nH]c3c2)CC1)c1ccc(F)cc1` [Example 18, (1r,4R)—N—((R)-1-(4-fluorophenyl)ethyl)-4-(2-phenyl-1H-indole-6-sulfonamido)cyclohexanecarboxamide] the value was 7.96.
The result for `CC(C)[C@@H](C)NC(=O)[C@H]1CC[C@H](NS(=O)(=O)c2ccc3[nH]c(-c4cccnc4)cc3c2)CC1` [Example 289, (1r,4R)-N-((R)-3-methylbutan-2-yl)-4-(2-(pyridin-3-yl)-1H-indole-5-sulfonamido)cyclohexanecarboxamide] reads 6.63; that for `COC(=O)[C@H]1CC[C@H](CNS(=O)(=O)c2ccc3oc4ccccc4c3c2)CC1` [Example 267, (1r,4r)-methyl 4-((dibenzo[b,d]furan-2-sulfonamido)methyl)cyclohexanecarboxylate], < 4.46; that for `C[C@@H](NC(=O)[C@H]1CC[C@H](NS(=O)(=O)c2ccc3nc(C(F)(F)F)cn3c2)CC1)c1ccc(F)cc1` [Example 40, (1r,4R)-N-((R)-1-(4-fluorophenyl)ethyl)-4-(2-(trifluoromethyl)imidazo[1,2-a]pyridine-6-sulfonamido)cyclohexanecarboxamide], 4.47.
On to `C[C@@H](NC(=O)[C@H]1CC[C@H](NS(=O)(=O)c2ccc3c(c2)NCCO3)CC1)c1ccc(F)cc1` [Example 150, (1r,4R)-4-(3,4-dihydro-2H-benzo[b][1,4]oxazine-6-sulfonamido)-N-((R)-1-(4-fluorophenyl)ethyl)cyclohexanecarboxamide], for which the pIC50 was 6.98.
For `CC(C)(C)OC(=O)N1CCN(C(=O)[C@H]2CC[C@H](NS(=O)(=O)c3ccc4c(c3)oc3ccccc34)CC2)[C@@H](c2ccccc2)C1` [Example 263, (S)-tert-butyl 4-((1r,4S)-4-(dibenzo[b,d]furan-3-sulfonamido)cyclohexanecarbonyl)-3-phenylpiperazine-1-carboxylate] the value was 7.52; for `CC(C)CCC(=O)N1CCNc2ncc(S(=O)(=O)N[C@H]3CC[C@H](C(=O)N[C@H](C)c4ccc(F)cc4)CC3)cc21` [Example 220, (1r,4R)-N-((R)-1-(4-fluorophenyl)ethyl)-4-(1-(4-methylpentanoyl)-1,2,3,4-tetrahydropyrido[3,2-b]pyrazine-7-sulfonamido)cyclohexanecarboxamide], 6.06.
Take `O=C(NC1CCCc2ccccc21)[C@H]1CC[C@H](NS(=O)(=O)c2ccc3[nH]c(-c4ccccc4)nc3c2)CC1` (stereo partly shown) [Example 636, (1r,4r)-4-(2-phenyl-1H-benzo[d]imidazole-5-sulfonamido)-N-(1,2,3,4-tetrahydronaphthalen-1-yl)cyclohexanecarboxamide]: the pIC50 is 5.77.
For `C[C@H]1CCCCN1C(=O)[C@H]1CC[C@H](NS(=O)(=O)c2ccc3cc(-c4ccc(CCC(=O)O)cc4)n(C)c3c2)CC1` [Example 410, 3-(4-(1-methyl-6-(N-((1S,4r)-4-((S)-2-methylpiperidine-1-carbonyl)cyclohexyl)sulfamoyl)-1H-indol-2-yl)phenyl)propanoic acid] the value was 7.70.
On to `O=C(N[C@@H](c1ccccc1)C(F)(F)F)[C@H]1CC[C@H](NS(=O)(=O)c2ccc3[nH]c(-c4ccccc4)nc3c2)CC1` [Example 274, (1r,4S)-4-(2-phenyl-1H-benzo[d]imidazole-5-sulfonamido)-N-((S)-2,2,2-trifluoro-1-phenylethyl)cyclohexanecarboxamide], for which the pIC50 is 5.40.
For `CC(C)c1nnc(-c2ccc(NS(=O)(=O)c3ccc4[nH]c(-c5ccc(N6CCN(C)CC6)cc5)nc4c3)cc2)o1` [Example 590, N-(4-(5-isopropyl-1,3,4-oxadiazol-2-yl)phenyl)-2-(4-(4-methylpiperazin-1-yl)phenyl)-1H-benzo[d]imidazole-5-sulfonamide] the value was 6.37.

As a reminder, the pIC50 is −log10 of the IC50, conventionally taken in molar units.
